Experimental data taken from patent publication US11319298B2 (Merck Sharp & Dohme Corp., priority 2016, dated 2022).

target: T1, human M4 muscarinic acetylcholine receptor (Homo sapiens, UniProt P08173); assay: human FLIPR-based M4 PAM assay, CHO-K1 cells stably transfected with human M4 receptor and chimeric G-protein Gαqi5; format: cell-based; settings: inflection point (IP) of dose response curve; acetylcholine added at 20% of maximum response; CHO-K1 human M4/Gαqi5, FLIPR Tetra
T1 construct: expressed in transfected cells; host or cells: CHO-K1
T1 sequence (P08173 1-479): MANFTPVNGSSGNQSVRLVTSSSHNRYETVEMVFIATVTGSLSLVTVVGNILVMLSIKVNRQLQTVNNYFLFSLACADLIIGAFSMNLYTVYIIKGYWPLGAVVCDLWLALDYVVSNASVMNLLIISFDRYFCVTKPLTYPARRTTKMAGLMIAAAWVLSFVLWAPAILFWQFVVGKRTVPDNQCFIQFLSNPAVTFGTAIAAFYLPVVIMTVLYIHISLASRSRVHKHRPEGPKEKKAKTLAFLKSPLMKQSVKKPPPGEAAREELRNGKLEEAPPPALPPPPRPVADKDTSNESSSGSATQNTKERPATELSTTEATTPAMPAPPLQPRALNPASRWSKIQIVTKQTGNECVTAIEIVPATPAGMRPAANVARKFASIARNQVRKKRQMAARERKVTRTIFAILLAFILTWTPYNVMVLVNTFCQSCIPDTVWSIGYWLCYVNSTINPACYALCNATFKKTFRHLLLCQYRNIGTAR
Procedure: In a typical experiment the M4 muscarinic acetylcholine receptor modulating activity of the compounds of the present invention was determined in accordance with the following experimental method. CHO-K1 cells stably transfected with human M4 receptor and chimeric G-protein Gαqi5 (Coward P, et al., Analytical Biochemistry, 270:242-248 (1999)) are thawed from liquid N2 storage, resuspended in growth medium, plated in black, clear bottom 384 well plates, and incubated 16-20 hours at 37° C., 5% CO2. On the day of assay, growth medium is removed, the cells are washed 2 times with wash buffer, and cells are incubated in dye loading buffer at 37° C., 5% CO2 for ˜1 hour. Following dye loading the cell plates are placed in a FLIPR Tetra instrument and while monitoring dye fluorescence (excitation […]), 10 uL of test substance at increasing concentrations is added, and fluorescence values are recorded for 4 min. Next, 10 uL of acetylcholine is added (final concentration calculated so as to achieve 20% of the maximum acetycholine response), and the fluorescence reading is continued for 3.5 min. In some cases, a third addition of acetylcholine (final concentration calculated to achieve 70% of the maximal acetylcholine response) is performed. The resulting dose response curves are fit to a 4 parameter logistic equation and the final result is determined as the inflection point (IP) of the curve
CHO-K1 cells stably transfected with human M4 receptor and chimeric G-protein Gαqi5 are thawed from liquid N2 storage, resuspended in growth medium, plated in black, clear bottom 384 well plates, and incubated 16-20 hours at 37° C., 5% CO2.
On the day of assay, growth medium is removed, the cells are washed 2 times with wash buffer, and cells are incubated in dye loading buffer at 37° C., 5% CO2 for ˜1 h. Following dye loading the cell plates are placed in a FLIPR Tetra instrument and while monitoring dye fluorescence ([…]), 10 uL of test substance at increasing concentrations is added, and fluorescence values are recorded for 4 min. Next, 10 uL of acetylcholine is added (final concentration calculated so as to achieve 20% of the maximum acetycholine response), and the fluorescence reading is continued for 3.5 min. In some cases, a third addition of acetylcholine (final concentration calculated to achieve 70% of the maximal acetylcholine response) is performed.

Q: `COc1ccc(OC2CCN(c3nnc(C(=O)NCc4cnn[nH]4)cc3C)CC2)cn1` [Example 118, 6-{4-[(6-methoxypyridin-3-yl)oxy]piperidin-1-yl}-5-methyl-N-(1H-1,2,3-triazol-5-ylmethyl)pyridazine-3-carboxamide] was tested. Which EC50 did it give?
A: 86 nM

Q: With `Cc1c(Cl)nc(CO)nc1N1CCC(Oc2ccc3c(c2)NCCO3)CC1` [Example 27, (4-chloro-6-(4-((3,4-dihydro-2H-benzo[b][1,4]oxazin-6-yl)oxy)piperidin-1-yl)-5-methylpyrimidin-2-yl)methanol] as the compound, how does the EC50 read?
A: 112 nM

Q: Which EC50 does the source give for `COc1ccc(OC2CCN(c3nnc(C(=O)NC4CCCc5ccccc54)cc3C)CC2)cn1` (stereo not drawn) [Example 200, 6-{4-[(6-methoxypyridin-3-yl)oxy]piperidin-1-yl}-5-methyl-N-(1,2,3,4-tetrahydronaphthalen-1-yl)pyridazine-3-carboxamide] here?
A: 218 nM

Q: Which EC50 does the source give for `COc1ccc(OC2CCN(c3ncc(C#N)c(Cl)c3C)CC2)cn1` [Example 34, 4-chloro-5-(4-((6-methoxypyridin-3-yl)oxy)piperidin-1-yl)-5-methylnicotinonitrile] here?
A: 217 nM

Q: Which EC50 does the source give for `CNC(=O)c1cc(C)c(N2CCC(Oc3ccc(OC)nc3)CC2)nn1` [Example 129, 6-{4-[(6-methoxypyridin-3-yl)oxy]piperidin-1-yl}-N,5-dimethylpyridazine-3-carboxamide] here?
A: 121 nM

Q: `COc1ccc(OC2CCN(c3ncnc(N4Cc5cccnc5C4)c3C)CC2)cn1` [Example 232, 6-(6-(4-((6-methoxypyridin-3-yl)oxy)piperidin-1-yl)-5-methylpyrimidin-4-yl)-6,7-dihydro-5H-pyrrolo[3,4-b]pyridine] was tested. Which EC50 did it give?
A: 1490 nM

Q: With `COc1ccc(OC2CCN(c3ncnc(N)c3C)CC2)cn1` [Example 89, 6-(4-((6-methoxypyridin-3-yl)oxy)piperidin-1-yl)-5-methylpyrimidin-4-amine] as the compound, how does the EC50 read?
A: 1610 nM

Q: How did the EC50 turn out when `COc1ccc(OC2CCN(c3nnc(C(=O)NCc4ccc(S(C)(=O)=O)cc4)cc3C)CC2)cn1` [Example 174, 6-{4-[(6-methoxypyridin-3-yl)oxy]piperidin-1-yl}-5-methyl-N-[4-(methylsulfonyl)benzyl]pyridazine-3-carboxamide] was run?
A: 563 nM

Q: For `COc1ccc(OC2CCN(c3ncnc(N4CCC(F)(F)C4)c3C)CC2)cn1` [Example 231, 4-(3,3-difluoropyrrolidin-1-yl)-6-(4-((6-methoxypyridin-3-yl)oxy)piperidin-1-yl)-5-methylpyrimidine], which EC50 is on record?
A: 1090 nM

Q: Which EC50 does the source give for `COc1ccc(OC2CCN(c3nc(C(=O)NCc4cnsc4)nc(Cl)c3C)CC2)cn1` [Example 225, 4-chloro-N-(isothiazol-4-ylmethyl)-6-(4-((6-methoxypyridin-3-yl)oxy)piperidin-1-yl)-5-methylpyrimidine-2-carboxamide] here?
A: 321 nM

Q: With `Cc1c(C#N)nc(CO)nc1N1CCC(Oc2ccc3c(c2)C(=O)OC3)CC1` [Example 260, 2-(hydroxymethyl)-5-methyl-6-(4-((3-oxo-1,3-dihydroisobenzofuran-5-yl)oxy)piperidin-1-yl)pyrimidine-4-carbonitrile] as the compound, how does the EC50 read?
A: 2560 nM

Q: With `CNC(=O)c1cc(C)c(N2CCC(Oc3ccc(OC)nc3)CC2)nc1C` [Example 189, 6-{4-[(6-methoxypyridin-3-yl)oxy]piperidin-1-yl}-N,2,5-trimethylpyridine-3-carboxamide] as the compound, how does the EC50 read?
A: 1870 nM

Q: With `Cc1c(Cl)nc(CO)nc1N1CCC(Oc2ccc3c(c2)CCCC3=O)CC1` [Example 36, 6-((1-(6-chloro-2-(hydroxymethyl)-5-methylpyrimidin-4-yl)piperidin-4-yl)oxy)-3,4-dihydronaphthalen-1(2H)-one] as the compound, how does the EC50 read?
A: 222 nM

Q: `COC(=O)c1cc(C)c(N2CCC(Oc3ccc4c(c3)COC4)CC2)nc1Cl` [Example 267, Methyl 2-chloro-6-(4-((1,3-dihydroisobenzofuran-5-yl)oxy)piperidin-1-yl)-5-methylnicotinate] was tested. Which EC50 did it give?
A: 2570 nM

Q: How did the EC50 turn out when `COc1ccc(OC2CCN(c3nnc(C#N)cc3C)CC2)cn1` [Example 258, 6-(4-((6-Methoxypyridin-3-yl)oxy)piperidin-1-yl)-5-methylpyridazine-3-carbonitrile] was run?
A: 73 nM
